# Assay results as given in patent publication US8524716B2, “Macrocyclic indoles as hepatitis C virus inhibitors” (priority 2007, dated 2013).
# pIC50: −log10 of the molar value. Where two headings read alike, the source gives them in different places.
# Experiments:
# [1] = system: HCV replicons (NS3-NS5B regions of HCV type 1b) in Huh-Luc cells; assay: HCV replicon assay in Huh-7 luc/neo (Huh-Luc) cells, luciferase readout; assay type: cell-based; details: three days incubation, luciferase activity
# From the text: The compounds of formula (I) were examined for activity in the inhibition of HCV RNA replication in a cellular assay. […] The cellular assay was based on a bicistronic expression construct, as described by Lohmann et al. (1999) Science vol. 285 pp. 110-113 with modifications described by Krieger et al. (2001) Journal of Virology 75: 4614-4624, in a multi-target screening strategy. In essence, the method was as follows.
# The assay utilized the stably transfected cell line Huh-7 luc/neo (hereafter referred to as Huh-Luc). This cell line harbors an RNA encoding a bicistronic expression construct comprising the wild type NS3-NS5B regions of HCV type 1b translated from an Internal Ribosome Entry Site (IRES) from encephalomyocarditis virus (EMCV), preceded by a reporter portion (firefly luciferase), and a selectable marker portion (neo^R, neomycine phosphotransferase). The construct is bordered by 5′ and 3′ NTRs (non-translated regions) from HCV type 1b. Continued culture of the replicon cells in the presence of G418 (neo^R) is dependent on the replication of the HCV RNA. The stably transfected replicon cells that express HCV RNA, which replicates autonomously and to high levels, encoding inter alia luciferase, were used for screening the antiviral compounds.
# The replicon cells were plated in 384 well plates in the presence of the test and control compounds which were added in various concentrations. Following an incubation of three days, HCV replication was measured by assaying luciferase activity (using standard luciferase assay substrates and reagents and a Perkin Elmer ViewLux™ ultraHTS microplate imager). […] The inhibitory activity of the compound on luciferase activity was monitored on the Huh-Luc cells, enabling a dose-response curve for each test compound. EC50 values were then calculated, which value represents the amount of the compound required to decrease the level of detected luciferase activity by 50%, or more specifically, the ability of the genetically linked HCV replicon RNA to replicate.
# HCV NS5B = HCV NS5B (Hepatitis C virus genotype 1b (strain HC-J4), UniProt O92972); assay: biochemical; assay type: biochemical; details: for IC50: 100 nM enzyme, [3H]GTP incorporation, 2 h at 25° C., read-out: IC50 (μM) Enzymatic assay
# Chain of HCV NS5B (O92972 2420-3010 limits assumed): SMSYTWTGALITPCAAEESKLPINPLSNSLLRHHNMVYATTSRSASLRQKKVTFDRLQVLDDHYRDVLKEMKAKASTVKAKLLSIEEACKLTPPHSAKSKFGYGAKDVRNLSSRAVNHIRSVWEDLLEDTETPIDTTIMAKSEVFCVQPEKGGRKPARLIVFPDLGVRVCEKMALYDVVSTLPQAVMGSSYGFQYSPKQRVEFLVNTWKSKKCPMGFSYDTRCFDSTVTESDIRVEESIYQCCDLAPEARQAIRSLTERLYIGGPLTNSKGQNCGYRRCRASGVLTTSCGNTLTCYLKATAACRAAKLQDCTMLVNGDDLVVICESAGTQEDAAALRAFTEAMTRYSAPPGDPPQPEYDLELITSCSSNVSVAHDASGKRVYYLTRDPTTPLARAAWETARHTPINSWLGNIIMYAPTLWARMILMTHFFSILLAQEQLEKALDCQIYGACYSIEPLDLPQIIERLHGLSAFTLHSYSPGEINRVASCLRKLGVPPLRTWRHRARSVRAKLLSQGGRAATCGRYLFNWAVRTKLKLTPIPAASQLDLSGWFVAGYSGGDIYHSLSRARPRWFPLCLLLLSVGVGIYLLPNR
# Procedure: The cDNA encoding NS5B amino acid 1-570 (HC-J4, genotype 1b, pCV-J4L6S, genebank accession number AF054247) was subcloned into the Nhe I and Xho I restriction sites of pET-21b. Expression of the subsequent His-tagged C-terminal 21 amino acid deleted NS5B was performed as follows:
# The NS5B expression construct was transformed into E. coli BL21(DE3) (Novagen, Madison, Wis.). Five milliliters of LB-medium supplemented with ampicillin (50 μg/mL) was inoculated with one colony. When the pre-culture reached an optical density of 0.6 measured at 600 nm, it was transferred to fresh LB-medium supplemented with ampicillin, at a ratio of 1:200. Cells were grown to an optical density at 600 nm of 0.6, after which the expression cultures were shifted to a growth temperature of 20° C. following induction with isopropyl-1-thio-β-D-galactopyranoside and MgCl2 at a final concentration of 0.4 mM and 10 μM, respectively. After ten hours of induction, cells were harvested by centrifugation and resuspended in 20 mM Tris-HCl, pH 7.5, 300 mM NaCl, 10% glycerol, 0.1% NP40, 4 mM MgCl2, 5 mM DTT supplemented with EDTA-free Complete Protease Inhibitor (Roche, Basel, Switzerland). Cell suspensions were disrupted by sonication and incubated with 10-15 mg/L of DNase I (Roche, Basel, Switzerland) for 30 minutes. Cell debris was removed through ultracentrifugation at 30,000×g for 1 hour and clarified cell lysate was flash frozen and stored at −80° C. prior to purification.
# Clarified cell lysate was thawed and subsequently loaded onto a 5 mL pre-packed HisTrap FF column equilibrated with 25 mM HEPES, pH 7.5, 500 mM NaCl, 10% glycerol and 5 mM DTT. Proteins were eluted with 500 mM imidazole at a flow rate of 1 mL/min. Fractions containing the protein of interest were applied onto a pre-packed 26/10 HiPrep Desalting Column equilibrated with 25 mM HEPES, pH 7.5, 150 mM NaCl, 10% glycerol and 5 mM DTT. The buffer-exchanged NS5B peak was then applied onto a 20 mL Poly-U Sepharose column. Protein was eluted with an increasing salt gradient and fractions collected. Protein purity was assessed on Nu-PAGE pre-cast gels (Invitrogen, Carlsbad, Calif.). Purified NS5B samples were concentrated using Centri-Prep concentrators (Millipore, Billerica, Mass., USA) and protein concentrations were determined by Bradford assay (Pierce, Rockford, Ill., USA).
# Measurement of HCV NS5B polymerization activity was performed by evaluating the amount of radio labeled GTP incorporated by the enzyme in a newly synthesized RNA using heteropolymeric RNA template/primer. The high-throughput RNA dependent RNA polymerase (RdRp) assay was carried out in 384-well plates using 100 nM enzyme, 300 nM 5′-biotinylated oligo(rG13)/poly(rC) primer-template, 600 nM of GTP, and 0.1 μCi of [^3H]GTP in 25 mM Tris-HCl, pH 7.5, 5 mM MgCl2, 25 mM KCl, 17 mM NaCl and 3 mM of dithiothreitol (DTT). Test compounds were dissolved in DMSO. The test compounds were added to the preformed polymerase-template complex, and incubated at room temperature for 15 min before the addition of nucleoside triphosphates (NTP). The 30 μl reaction was terminated after 2 h at 25° C. upon addition of 30 μl A PVT-SPA beads (Amersham Biosciences RPNQ0009, 5 mg/ml in 0.5 M EDTA).
Compound,EC50 [1] [µM],IC50 (HCV NS5B) [µM],"EC50 ([1]; Hepatitis C virus, Huh-7, 72 h) [µM]",pIC50 (HCV NS5B)
"17-Cyclohexyl-18-furan-3-yl-9-methyl-10,10-dioxo-10λ^6-thia-1,4,9,11-tetraaza-tricyclo[11.5.2.016,19]icosa-13(20),14,16(19),17-tetraene-3,12-dione [Cpd 28]",1.58,–,–,–
"O=C1Cn2c(-c3ccoc3)c(C3CCCCC3)c3ccc(cc32)C(=O)NCC/C=C\CCN1 [Cpd 1, 17-cyclohexyl-18-(furan-3-yl)-1,4,11-triaza-tricyclo-[11.5.2.0^16,19]icosa-7,13(20),14,16(19),17-pentaene-3,12-dione]",–,2.2,3.4,–
"O=C1Cn2c(-c3ccoc3)c(C3CCCCC3)c3ccc(cc32)C(=O)NCCCCCCN1 [Cpd 2, 17-Cyclohexyl-18-(furan-3-yl)-1,4,11-triaza-tricyclo[11.5.2.0^16,19]icosa-13(20),14,16(19),17-tetraene-3,12-dione]",–,9.5,4.3,–
"CS(=O)(=O)N1CCN(c2ccc([N+](=O)[O-])cc2COc2ccc(-c3c(C4CCCCC4)c4ccc5cc4n3CC(=O)NCC/C=C\CCNC5=O)cc2)CC1 [Cpd 3, 17-cyclohexyl-18-[4-[2-(4-methanesulfonylpiperazin-1-yl)-5-nitrobenzyloxy]phenyl]-1,4,11-triazatricyclo[11.5.2.0^16,19]icosa-7,13(20),14,16(19),17-pentaene-3,12-dione]",–,1.1,0.72,–
"CS(=O)(=O)N1CCN(c2ccc(N)cc2COc2ccc(-c3c(C4CCCCC4)c4ccc5cc4n3CC(=O)NCC/C=C\CCNC5=O)cc2)CC1 [Cpd 4, 17-cyclohexyl-18-[4-[2-(4-methanesulfonylpiperazin-1-yl)-5-amino-benzyloxy]phenyl]-1,4,11-triazatricyclo[11.5.2.0^16,19]icosa-7,13(20),14,16(19),17-pentaene-3,12-dione]",–,0.27,0.24,–
"CC(=O)Nc1ccc(N2CCN(S(C)(=O)=O)CC2)c(COc2ccc(-c3c(C4CCCCC4)c4ccc5cc4n3CC(=O)NCC/C=C\CCNC5=O)cc2)c1 [Cpd 5, 17-cyclohexyl-18-[4-[2-(4-methanesulfonylpiperazin-1-yl)-5-acetylamino-benzyloxy]phenyl]-1,4,11-triazatricyclo[11.5.2.0^16,19]icosa-7,13(20),14,16(19),17-pentaene-3,12-dione]",–,0.29,0.58,–
O=C1Cn2c(-c3ccc(O)cc3)c(C3CCCCC3)c3ccc(cc32)C(=O)NCCCCCCN1 [Cpd 8],> 32,2.79,–,–
"COc1ccc(Br)c(COc2ccc(-c3c(C4CCCCC4)c4ccc5cc4n3CC(=O)NCCCCCCNC5=O)cc2)c1 [Cpd 9, 18-[4-(2-bromo-5-methoxybenzyloxy)phenyl]-17-cyclohexyl-1,4,11-triaza-tricyclo[11.5.2.0^16,19]icosa-13(20),14,16(19),17-tetraene-3,12-dione]",–,13,4.8,–
"COc1ccc(-c2ccc(Cl)cc2)c(COc2ccc(-c3c(C4CCCCC4)c4ccc5cc4n3CC(=O)NCCCCCCNC5=O)cc2)c1 [Cpd 10, 18-[4-(4′-chloro-4-methoxybiphenyl-2-ylmethoxy)phenyl]-17-cyclohexyl-1,4,11-triazatricyclo[11.5.2.0^16,19]icosa-13(20),14,16(19),17-tetraene-3,12-dione]",–,–,> 32,5.16
"O=C1Cn2c(-c3ccc(OCc4cc(N5CCCC5=O)ccc4N4CCOCC4)cc3)c(C3CCCCC3)c3ccc(cc32)C(=O)NCC/C=C\CCN1 [Cpd 11, 17-Cyclohexyl-18-[4-[2-morpholin-4-yl-5-(2-oxo-pyrrolidin-1-yl)-benzyloxy]-phenyl]-1,4,11-triaza-tricyclo[11.5.2.0^16,19]icosa-7,13(20),14,16(19),17-pentaene-3,12-dione]",–,0.45,0.69,–
"CS(=O)(=O)N1CCN(c2ccc(N3CCCC3=O)cc2COc2ccc(-c3c(C4CCCCC4)c4ccc5cc4n3CC(=O)NCC/C=C\CCNC5=O)cc2)CC1 [Cpd 12, 17-Cyclohexyl-18-[4-[2-(4-methanesulfonyl-piperazin-1-yl)-5-(2-oxo-pyrrolidin-1-yl)-benzyloxy]-phenyl]-1,4,11-triaza-tricyclo[11.5.2.0^16,19]icosa-7,13(20),14,16(19),17-pentaene-3,12-dione]",–,0.36,0.27,–
"O=C1Cn2c(-c3ccc(OCc4cc(N5CCCC5=O)ccc4N4CCOCC4)cc3)c(C3CCCCC3)c3ccc(cc32)C(=O)NS(=O)(=O)CC=CCCN1 [Cpd 13, 17-Cyclohexyl-18-[4-[2-morpholin-4-yl-5-(2-oxo-pyrrolidin-1-yl)-benzyloxy]-phenyl]-10,10-dioxo-10λ^6-thia-1,4,11-triaza-tricyclo[11.5.2.0^16,19]icosa-7,13(20),14,16(19),17-pentaene-3,12-dione]",–,–,2.36,7.40
"CS(=O)(=O)N1CCN(c2ccc(N3CCCC3=O)cc2COc2ccc(-c3c(C4CCCCC4)c4ccc5cc4n3CC(=O)NCCC=CCS(=O)(=O)NC5=O)cc2)CC1 [Cpd 14, 17-Cyclohexyl-18-[4-[2-(4-methanesulfonyl-piperazin-1-yl)-5-(2-oxo-pyrrolidin-1-yl)-benzyloxy]-phenyl]-10,10-dioxo-10λ^6-thia-1,4,11-triaza-tricyclo-[11.5.2.0^16,19]icosa-7,13(20),14,16(19),17-pentaene-3,12-dione]",–,–,2.04,6.06
"CN1C/C=C\CCNC(=O)Cn2c(-c3ccc(Cl)cc3)c(C3CCCCC3)c3ccc(cc32)C(=O)NS1(=O)=O [Cpd 20, 19-(4-Chloro-phenyl)-18-cyclohexyl-10-methyl-11,11-dioxo-11λ^6-thia-1,4,10,12-tetraaza-tricyclo[12.5.2.017,20]henicosa-7,14(21),15,17(20),18-pentaene-3,13-dione]",–,–,0.61,–
"CN1CCCCCNC(=O)Cn2c(-c3ccccc3)c(C3CCCCC3)c3ccc(cc32)C(=O)NS1(=O)=O [Cpd 22, 18-Cyclohexyl-10-methyl-11,11-dioxo-19-phenyl-11λ^6-thia-1,4,10,12-tetraaza-tricyclo[12.5.2.017,20]henicosa-14(21),15,17(20),18-tetraene-3,13-dione]",–,–,0.43,–
"CN1CCCCCNC(=O)Cn2c(-c3ccoc3)c(C3CCCCC3)c3ccc(cc32)C(=O)NS1(=O)=O [Cpd 30, 18-Cyclohexyl-19-furan-3-yl-10-methyl-11,11-dioxo-11λ^6-thia-1,4,10,12-tetraaza-tricyclo[12.5.2.017,20]henicosa-14(21),15,17(20),18-tetraene-3,13-dione]",–,–,0.79,–
